Experimental data as given in US20260053764A1, “COMPOSITION FOR PREVENTING DETERIORATION IN COGNITIVE FUNCTION AND/OR IMPROVING COGNITIVE FUNCTION” (PHARMA FOODS INTERNATIONAL CO., LTD., priority 2020, published 2026).

Key:
[1] = tested on: cognitive function of a human; test: RBANS neuropsychological test in clinical tests A and B; format: in vivo; design: Attention / Delayed memory / Immediate memory / Language: scale not given here; details: for Attention / Immediate memory / Language / Visual spatial configuration / Delayed memory: mean ± SD; for scores regarding delayed playback, GABA group compared to the placebo group / scores regarding visual space, GABA group compared to the placebo group: after twelve weeks of ingestion
Procedure: In addition, the RBANS neuropsychological test (RBANS: Repeatable Battery for the Assessment of Neuropsychological Status) is one of the neuropsychological examinations that have been standardized the a in United States, which is neuropsychological test exercise (examination battery) that takes a short time (about 30 minutes) and can be repeatedly assessed. The RBANS neuropsychological test can assess five cognitive domains, which are immediate memory, visual spatial/constructional, language, attention and delayed memory.
Two types of placebo-controlled randomized double-blind two-group parallel comparison tests were carried out as clinical tests. […] Specifically, capsules comprising 100 mg of dextrin per capsule were used as the placebo food.
The screening examination was carried out to select 60 subjects for each test (a total of 120 subjects). MMSE (Mini Mental State Examination) is an examination for assessing the degree of progression of dementia or the like based on the score thereof with 30 as the perfect score, wherein dementia is suspected with a score of 23 or lower.
The total of 120 subjects were randomly divided into test A active group, test A placebo group, test B active group and test B placebo group with 30 subjects in each group. Each subject of the test A active group ingested two capsules of the active food, each subject of the test A placebo group ingested two capsules of the placebo food, each subject of the test B active group ingested one capsule of the active food and each subject of the test B placebo group ingested one capsule of the placebo food.
Each subject followed the schedule shown in the table below and ingested one or two of the assigned capsules together with water for 12 weeks from two weeks after the initial screening examination. All subjects had no particular instruction during the ingestion period and freely took their meals.
As shown with ● in the test schedule in Table 1, Cognitrax was carried out a total of five times, which are upon screening, before starting test food sample ingestion, after four weeks of ingestion, after eight weeks of ingestion and after twelve weeks of ingestion, and the RBANS neuropsychological test was carried out a total of two times, which are before staring test food ingestion and after twelve weeks of ingestion.

[2] = tested on: IGF-1 (insulin-like growth factor-1); test: Blood test, IGF-1 concentration in blood; format: in vivo, human; details: 200 mg ingestion test
Description: While there are still many unclear points regarding the biochemical mechanism regarding reduction in cognitive function, the IGF-1 (insulin-like growth factor-1) level in blood is known to be reduced by aging. […] In one embodiment of the present disclosure, the composition of the present disclosure can be a composition for suppressing reduction in cognitive function and/or improving the cognitive function through elevation of the IGF-1 concentration in blood.
Among the 120 subjects in Example 1, a total of six blood tests were carried out to the total of 60 subjects who participated in test, wherein blood tests were carried out upon screening, before starting test food ingestion, after four weeks of ingestion, after eight weeks of ingestion, after twelve weeks of ingestion and four weeks after ending ingestion, as shown with ● in the test schedule in Table 1.

[3] = test A 200 mg, before ingestion
[4] = test B 100 mg, before ingestion

For `NCCCC(=O)O` [GABA, γ-aminobutyric acid], the “Delayed memory: difference between active food and placebo food groups” value ([1]; test A 200 mg, 12 w) was 9.4, the “Immediate memory: difference between active food and placebo food groups” value ([1]; test A 200 mg, 12 w) was 13.1 and the “Language: difference between active food and placebo food groups” value ([1]; test A 200 mg, 12 w) was 5.0. For the same molecule, the “RBANS domain (row head blank): difference between active food and placebo food groups” value ([1]; test A 200 mg, 12 w) was 5.6, the “Visual space: difference between active food and placebo food groups” value ([1]; test A 200 mg, 12 w) was 3.1 and the Attention ([1]; test A 200 mg, 12 w) was 53.0 ± 15.2. It also gave an Immediate memory ([1]; test A 200 mg, 12 w) of 47.6 ± 14.7, a Language ([1]; test A 200 mg, 12 w) of 54.2 ± 9.5 and a Visual spatial configuration ([1]; test A 200 mg, 12 w) of 48.8 ± 13.0. The “Delayed memory: difference between active food and placebo food groups” value [1, 3] was −1.6, the “Immediate memory: difference between active food and placebo food groups” value [1, 3] was 0.8 and the “Language: difference between active food and placebo food groups” value [1, 3] was 2.3. For the same molecule, the “RBANS domain (row head blank): difference between active food and placebo food groups” value [1, 3] was −0.8, the “Visual space: difference between active food and placebo food groups” value [1, 3] was −0.2 and the Attention [1, 3] was 44.5 ± 17.6. The Delayed memory [1, 3] was 39.8 ± 17.1, the Immediate memory [1, 3] was 42.3 ± 16.6 and the Language [1, 3] was 48.4 ± 8.5. For the same molecule, the Visual spatial configuration [1, 3] was 47.7 ± 14.7, the “scores regarding delayed playback, GABA group compared to the placebo group” value ([1]; test A) was “significant improvement” and the “scores regarding visual space, GABA group compared to the placebo group” value ([1]; test A) was “significant improvement”. The “Attention: difference between active food and placebo food groups” value ([1]; test B 100 mg, 12 w) was −2.2, the “Delayed memory: difference between active food and placebo food groups” value ([1]; test B 100 mg, 12 w) was 11.9 and the “Immediate memory: difference between active food and placebo food groups” value ([1]; test B 100 mg, 12 w) was 3.5. The “Language: difference between active food and placebo food groups” value ([1]; test B 100 mg, 12 w) was 3.9, the “Visual space: difference between active food and placebo food groups” value ([1]; test B 100 mg, 12 w) was 9.9 and the Delayed memory ([1]; test B 100 mg, 12 w) was 46.9 ± 11.3. It also gave an Immediate memory ([1]; test B 100 mg, 12 w) of 43.9 ± 14.4, a Language ([1]; test B 100 mg, 12 w) of 51.6 ± 8.7 and a Visual spatial configuration ([1]; test B 100 mg, 12 w) of 48.2 ± 10.3. For the same molecule, the “Attention: difference between active food and placebo food groups” value [1, 4] was −5.5, the “Delayed memory: difference between active food and placebo food groups” value [1, 4] was 1.2 and the “Immediate memory: difference between active food and placebo food groups” value [1, 4] was −0.9. For the same molecule, the “Language: difference between active food and placebo food groups” value [1, 4] was −2.1, the “Visual space: difference between active food and placebo food groups” value [1, 4] was 1.0 and the Attention [1, 4] was 43.4 ± 11.6. The Delayed memory [1, 4] was 41.7 ± 15.3, the Immediate memory [1, 4] was 42.8 ± 13.4 and the Language [1, 4] was 47.8 ± 11.6. The Visual spatial configuration [1, 4] was 48.3 ± 8.8, the “scores regarding delayed playback, GABA group compared to the placebo group” value ([1]; test B) was “significant improvement” and the “scores regarding visual space, GABA group compared to the placebo group” value ([1]; test B) was “significant improvement”. For the same molecule, the IGF-1 ([2]; blood, before ingestion, mean ± SD) was 71.0 ± 21.5 ng/mL and the “IGF-1 in the group that ingested GABA” value ([2]; vs. before ingestion) was “tendency of increase”.
